Measurements reported in the NIST ThermoML archive (doi:10.1016/j.jct.2016.04.003).
Numbers after ± are expanded uncertainties.

Assay: refractive index (Na D-line) (dimensionless); xn = mol fraction of the nth substance listed
Settings: 99 kPa, Liquid, Standard Abbe refractometry

`CCCC[n+]1ccccc1.F[B-](F)(F)F` [1-butylpyridinium tetrafluoroborate] + O gave a refractive index (293.15 K, x1 = 0.0165) of 1.34819 ± 0.00035, a refractive index (293.15 K, x1 = 0.0379) of 1.36348 ± 0.00033 and a refractive index (293.15 K, x1 = 0.0863) of 1.38639 ± 0.00032. It also gave a refractive index (293.15 K, x1 = 0.101) of 1.39141 ± 0.00032, a refractive index (293.15 K, x1 = 0.134) of 1.40063 ± 0.00032 and a refractive index (293.15 K, x1 = 0.243) of 1.41888 ± 0.00032. For the same compound, the refractive index (293.15 K, x1 = 0.289) was 1.42371 ± 0.00032, the refractive index (293.15 K, x1 = 0.3456) was 1.42826 ± 0.00032 and the refractive index (293.15 K, x1 = 0.4217) was 1.43287 ± 0.00032. It also gave a refractive index (293.15 K, x1 = 0.5485) of 1.43815 ± 0.00033, a refractive index (293.15 K, x1 = 0.6029) of 1.43987 ± 0.00034 and a refractive index (293.15 K, x1 = 0.7232) of 1.44283 ± 0.00034. For the same compound, the refractive index (293.15 K, x1 = 0.8005) was 1.44431 ± 0.00035, the refractive index (293.15 K, x1 = 0.8575) was 1.44526 ± 0.00036 and the refractive index (293.15 K, x1 = 0.9315) was 1.44633 ± 0.00036. It also gave a refractive index (293.15 K, x1 = 1) of 1.44719 ± 0.00037, a refractive index (303.15 K, x1 = 0.0165) of 1.34644 ± 0.00035 and a refractive index (303.15 K, x1 = 0.0379) of 1.3612 ± 0.00033. The refractive index (303.15 K, x1 = 0.0863) was 1.38392 ± 0.00032, the refractive index (303.15 K, x1 = 0.101) was 1.38881 ± 0.00032 and the refractive index (303.15 K, x1 = 0.134) was 1.39805 ± 0.00032. For the same compound, the refractive index (303.15 K, x1 = 0.243) was 1.41639 ± 0.00032, the refractive index (303.15 K, x1 = 0.289) was 1.42115 ± 0.00032 and the refractive index (303.15 K, x1 = 0.3456) was 1.42571 ± 0.00032. For the same compound, the refractive index (303.15 K, x1 = 0.4217) was 1.4303 ± 0.00032, the refractive index (303.15 K, x1 = 0.5485) was 1.43558 ± 0.00033 and the refractive index (303.15 K, x1 = 0.6029) was 1.43726 ± 0.00034. The refractive index (303.15 K, x1 = 0.7232) was 1.44021 ± 0.00034, the refractive index (303.15 K, x1 = 0.8005) was 1.44168 ± 0.00035 and the refractive index (303.15 K, x1 = 0.8575) was 1.44261 ± 0.00036. It also gave a refractive index (303.15 K, x1 = 0.9315) of 1.44368 ± 0.00036, a refractive index (303.15 K, x1 = 1) of 1.44454 ± 0.00037 and a refractive index (313.15 K, x1 = 0.0165) of 1.34468 ± 0.00034. The refractive index (313.15 K, x1 = 0.0379) was 1.35896 ± 0.00033, the refractive index (313.15 K, x1 = 0.0863) was 1.38128 ± 0.00032 and the refractive index (313.15 K, x1 = 0.101) was 1.38613 ± 0.00032. For the same compound, the refractive index (313.15 K, x1 = 0.134) was 1.39527 ± 0.00032, the refractive index (313.15 K, x1 = 0.243) was 1.41376 ± 0.00032 and the refractive index (313.15 K, x1 = 0.289) was 1.41853 ± 0.00032. The refractive index (313.15 K, x1 = 0.3456) was 1.42304 ± 0.00032, the refractive index (313.15 K, x1 = 0.4217) was 1.42763 ± 0.00032 and the refractive index (313.15 K, x1 = 0.5485) was 1.43295 ± 0.00033. It also gave a refractive index (313.15 K, x1 = 0.6029) of 1.43463 ± 0.00034, a refractive index (313.15 K, x1 = 0.7232) of 1.43755 ± 0.00034 and a refractive index (313.15 K, x1 = 0.8005) of 1.43905 ± 0.00035. It also gave a refractive index (313.15 K, x1 = 0.8575) of 1.43999 ± 0.00036, a refractive index (313.15 K, x1 = 0.9315) of 1.44105 ± 0.00036 and a refractive index (313.15 K, x1 = 1) of 1.44191 ± 0.00037. For the same compound, the refractive index (323.15 K, x1 = 0.0165) was 1.34263 ± 0.00034, the refractive index (323.15 K, x1 = 0.0379) was 1.35635 ± 0.00033 and the refractive index (323.15 K, x1 = 0.0863) was 1.37835 ± 0.00032. It also gave a refractive index (323.15 K, x1 = 0.101) of 1.38331 ± 0.00032, a refractive index (323.15 K, x1 = 0.134) of 1.3926 ± 0.00032 and a refractive index (323.15 K, x1 = 0.243) of 1.41106 ± 0.00032. It also gave a refractive index (323.15 K, x1 = 0.289) of 1.41585 ± 0.00032, a refractive index (323.15 K, x1 = 0.3456) of 1.42041 ± 0.00032 and a refractive index (323.15 K, x1 = 0.4217) of 1.42496 ± 0.00032. The refractive index (323.15 K, x1 = 0.5485) was 1.43025 ± 0.00033, the refractive index (323.15 K, x1 = 0.6029) was 1.43194 ± 0.00034 and the refractive index (323.15 K, x1 = 0.7232) was 1.43489 ± 0.00034. The refractive index (323.15 K, x1 = 0.8005) was 1.43637 ± 0.00035, the refractive index (323.15 K, x1 = 0.8575) was 1.43731 ± 0.00036 and the refractive index (323.15 K, x1 = 0.9315) was 1.43838 ± 0.00036. The refractive index (323.15 K, x1 = 1) was 1.43923 ± 0.00037.
For `CCC[n+]1ccccc1.F[B-](F)(F)F` [1-propylpyridinium tetrafluoroborate] + O, the refractive index (293.15 K, x1 = 0.0185) was 1.34795 ± 0.00035, the refractive index (293.15 K, x1 = 0.0287) was 1.3549 ± 0.00033 and the refractive index (293.15 K, x1 = 0.0466) was 1.36529 ± 0.00033. The refractive index (293.15 K, x1 = 0.0766) was 1.37888 ± 0.00032, the refractive index (293.15 K, x1 = 0.0964) was 1.38592 ± 0.00032 and the refractive index (293.15 K, x1 = 0.2011) was 1.40941 ± 0.00033. It also gave a refractive index (293.15 K, x1 = 0.2858) of 1.41984 ± 0.00034, a refractive index (293.15 K, x1 = 0.3993) of 1.42862 ± 0.00035 and a refractive index (293.15 K, x1 = 0.4979) of 1.4337 ± 0.00037. It also gave a refractive index (293.15 K, x1 = 0.5772) of 1.43677 ± 0.00039, a refractive index (293.15 K, x1 = 0.6015) of 1.43757 ± 0.0004 and a refractive index (293.15 K, x1 = 0.6695) of 1.43957 ± 0.00041. For the same compound, the refractive index (293.15 K, x1 = 0.7309) was 1.44111 ± 0.00043, the refractive index (293.15 K, x1 = 0.7771) was 1.44212 ± 0.00044 and the refractive index (293.15 K, x1 = 0.8395) was 1.44335 ± 0.00046. The refractive index (293.15 K, x1 = 0.9054) was 1.44449 ± 0.00048, the refractive index (293.15 K, x1 = 0.9633) was 1.44537 ± 0.0005 and the refractive index (293.15 K, x1 = 1) was 1.44588 ± 0.00051. The refractive index (303.15 K, x1 = 0.0185) was 1.34613 ± 0.00034, the refractive index (303.15 K, x1 = 0.0287) was 1.35282 ± 0.00033 and the refractive index (303.15 K, x1 = 0.0466) was 1.36297 ± 0.00033. For the same compound, the refractive index (303.15 K, x1 = 0.0766) was 1.37637 ± 0.00032, the refractive index (303.15 K, x1 = 0.0964) was 1.38337 ± 0.00032 and the refractive index (303.15 K, x1 = 0.2011) was 1.40683 ± 0.00033. The refractive index (303.15 K, x1 = 0.2858) was 1.41727 ± 0.00034, the refractive index (303.15 K, x1 = 0.3993) was 1.42604 ± 0.00035 and the refractive index (303.15 K, x1 = 0.4979) was 1.4311 ± 0.00037. It also gave a refractive index (303.15 K, x1 = 0.5772) of 1.43415 ± 0.00039, a refractive index (303.15 K, x1 = 0.6015) of 1.43495 ± 0.0004 and a refractive index (303.15 K, x1 = 0.6695) of 1.43694 ± 0.00041. The refractive index (303.15 K, x1 = 0.7309) was 1.43847 ± 0.00043, the refractive index (303.15 K, x1 = 0.7771) was 1.43948 ± 0.00044 and the refractive index (303.15 K, x1 = 0.8395) was 1.4407 ± 0.00046. For the same compound, the refractive index (303.15 K, x1 = 0.9054) was 1.44183 ± 0.00048, the refractive index (303.15 K, x1 = 0.9633) was 1.44271 ± 0.0005 and the refractive index (303.15 K, x1 = 1) was 1.44322 ± 0.00051. The refractive index (313.15 K, x1 = 0.0185) was 1.34407 ± 0.00034, the refractive index (313.15 K, x1 = 0.0287) was 1.35055 ± 0.00033 and the refractive index (313.15 K, x1 = 0.0466) was 1.36049 ± 0.00033. For the same compound, the refractive index (313.15 K, x1 = 0.0766) was 1.37374 ± 0.00032, the refractive index (313.15 K, x1 = 0.0964) was 1.38071 ± 0.00032 and the refractive index (313.15 K, x1 = 0.2011) was 1.40419 ± 0.00033. For the same compound, the refractive index (313.15 K, x1 = 0.2858) was 1.41465 ± 0.00034, the refractive index (313.15 K, x1 = 0.3993) was 1.42343 ± 0.00035 and the refractive index (313.15 K, x1 = 0.4979) was 1.42848 ± 0.00037. It also gave a refractive index (313.15 K, x1 = 0.5772) of 1.43152 ± 0.00039, a refractive index (313.15 K, x1 = 0.6015) of 1.43233 ± 0.0004 and a refractive index (313.15 K, x1 = 0.6695) of 1.4343 ± 0.00041. The refractive index (313.15 K, x1 = 0.7309) was 1.43583 ± 0.00043, the refractive index (313.15 K, x1 = 0.7771) was 1.43685 ± 0.00044 and the refractive index (313.15 K, x1 = 0.8395) was 1.43806 ± 0.00046. The refractive index (313.15 K, x1 = 0.9054) was 1.43918 ± 0.00048, the refractive index (313.15 K, x1 = 0.9633) was 1.44006 ± 0.0005 and the refractive index (313.15 K, x1 = 1) was 1.44057 ± 0.00051. For the same compound, the refractive index (323.15 K, x1 = 0.0185) was 1.34187 ± 0.00034, the refractive index (323.15 K, x1 = 0.0287) was 1.34817 ± 0.00033 and the refractive index (323.15 K, x1 = 0.0466) was 1.35792 ± 0.00033. For the same compound, the refractive index (323.15 K, x1 = 0.0766) was 1.37105 ± 0.00032, the refractive index (323.15 K, x1 = 0.0964) was 1.37801 ± 0.00032 and the refractive index (323.15 K, x1 = 0.2011) was 1.40152 ± 0.00033. For the same compound, the refractive index (323.15 K, x1 = 0.2858) was 1.41202 ± 0.00034, the refractive index (323.15 K, x1 = 0.3993) was 1.42083 ± 0.00035 and the refractive index (323.15 K, x1 = 0.4979) was 1.42588 ± 0.00037. The refractive index (323.15 K, x1 = 0.5772) was 1.42891 ± 0.00039, the refractive index (323.15 K, x1 = 0.6015) was 1.42971 ± 0.0004 and the refractive index (323.15 K, x1 = 0.6695) was 1.43169 ± 0.00041. It also gave a refractive index (323.15 K, x1 = 0.7309) of 1.43321 ± 0.00043, a refractive index (323.15 K, x1 = 0.7771) of 1.43422 ± 0.00044 and a refractive index (323.15 K, x1 = 0.8395) of 1.43543 ± 0.00046. It also gave a refractive index (323.15 K, x1 = 0.9054) of 1.43656 ± 0.00048, a refractive index (323.15 K, x1 = 0.9633) of 1.43742 ± 0.0005 and a refractive index (323.15 K, x1 = 1) of 1.43793 ± 0.00051.
